Where two headings read alike, the source gives them in different places. Where a SMILES comes first, the peptide text is derived from it. [ ]: non-standard residue; d: D form. NMeF = CN[C@@H](Cc1ccccc1)C(=O)O; NMeI = CC[C@H](C)[C@H](NC)C(=O)O; NMeV = CN[C@H](C(=O)O)C(C)C; NMeA = CN[C@@H](C)C(=O)O
Tests used:
[1] = system: Bacillus subtilis ATCC 6633; type: cell-based; conditions: ATCC 6633, 24 h
[2] = system: SW620; experiment: cells; set-up: MTT assay of cancer cell growth inhibition, absorbance at 580 nm; conditions: Homo sapiens, SW-620, 48 h
Protocol: (§1) Adherent cell SW620 (human colorectal carcinoma) and NCI-H460 (human lung carcinoma) cells were cultured in Roswell Park Memorial Institute (RPMI) 1640 medium. All cells were cultured as adherent mono-layers in flasks supplemented with 10% fetal bovine serum, L–glutamine (2 mM), penicillin (100 unit/mL), and streptomycin (100 μg/mL), in a humidified 37°C incubator supplied with 5% CO2. Briefly, cells were harvested with trypsin and dispensed into 96-well microtiter assay plates at 3,000 cells/well, after which they were incubated for 18 h at 37°C with 5% CO2 (to allow cells to attach as adherent mono-layers). Test compounds were dissolved in 20% DMSO in PBS (v/v) and aliquots (10 μL) applied to cells over a series of final concentrations ranging from 10 nM to 30 μM. After 48 h incubation at 37°C with 5% CO2 an aliquot (20 μL) of 3-(4,5-dimethylthiazol-2-yl)-2,5-diphenyltetrazolium bromide (MTT) in phosphate buffered saline (PBS, 5 mg/mL) was added to each well (final concentration 0.5 mg/mL), and microtiter plates were incubated for a further 4 h at 37°C with 5% CO2. After final incubation, the medium was aspirated and precipitated formazan crystals dissolved in DMSO (100 μL/well). The absorbance of each well was measured at 580 nm with a PowerWave XS Microplate Reader from Bio-Tek Instruments Inc. Where relevant, IC50 values were calculated using Prism 7.0, as the concentration of analyte required for 50% inhibition of cancer cell growth (compared to negative controls). Negative control was 1% aqueous DMSO, while positive control was doxorubicin (30 μM). All experiments were performed in duplicate.

[3] = system: NCI-H460; experiment: cells; set-up: MTT assay of cancer cell growth inhibition, absorbance at 580 nm; conditions: Homo sapiens, NCI-H460, 48 h
Protocol: as §1

CC[C@H](C)[C@@H](C(=O)N[C@@H](CC(C)C)C(=O)O)N(C)C(=O)[C@H](Cc1ccccc1)N(C)C(=O)[C@H](C(C)C)N(C)C(=O)[C@H](C(C)C)N(C)C(=O)[C@@H]1CCCN1C(=O)[C@H](C(C)C)N(C)C(=O)[C@@H](NC(=O)[C@@H](NC(=O)[C@H](C(C)C)N(C)C(=O)[C@H](C)NC)C(C)C)[C@@H](C)O [compound 2, talaropeptide A] (H-[NMeA][NMeV]VT[NMeV]P[NMeV][NMeV][NMeF][NMeI]L-OH)
IC50 [1]: 1.5 µM | IC50 ([2]; read-out: 2): > 30 µM | IC50 ([3]; read-out: 2): > 30 µM

CC[C@H](C)[C@@H](C(=O)N[C@@H](CC(C)C)C(=O)O)N(C)C(=O)[C@H](Cc1ccccc1)N(C)C(=O)[C@H](C(C)C)N(C)C(=O)[C@H](C(C)C)N(C)C(=O)[C@@H]1CCCN1C(=O)[C@H](C(C)C)N(C)C(=O)[C@@H](NC(=O)[C@@H](NC(=O)[C@@H](NC(=O)[C@H](C(C)C)N(C)C(=O)[C@H](C)NC)C(C)C)[C@@H](C)O)C(C)C [compound 3, talaropeptide B] (H-[NMeA][NMeV]VTV[NMeV]P[NMeV][NMeV][NMeF][NMeI]L-OH)
IC50 [1]: 3.7 µM | IC50 ([2]; read-out: 3): > 30 µM | IC50 ([3]; read-out: 3): > 30 µM

CC[C@H](C)[C@@H](C(=O)N[C@@H](CC(C)C)C(=O)O)N(C)C(=O)[C@H](Cc1ccccc1)N(C)C(=O)[C@H](C(C)C)N(C)C(=O)[C@H](C(C)C)N(C)C(=O)[C@@H]1CCCN1C(=O)[C@H](C(C)C)N(C)C(=O)[C@@H](NC(=O)[C@@H](NC(=O)[C@H](C(C)C)N(C)C(=O)[C@H](C)N(C)C(C)=O)C(C)C)[C@@H](C)O [compound 4, talaropeptide C] (Ac-[NMeA][NMeV]VT[NMeV]P[NMeV][NMeV][NMeF][NMeI]L-OH)
IC50 ([2]; read-out: 4): > 30 µM | IC50 ([3]; read-out: 4): > 30 µM

CC[C@H](C)[C@@H](C(=O)N[C@@H](CC(C)C)C(=O)O)N(C)C(=O)[C@H](Cc1ccccc1)N(C)C(=O)[C@H](C(C)C)N(C)C(=O)[C@H](C(C)C)N(C)C(=O)[C@@H]1CCCN1C(=O)[C@H](C(C)C)N(C)C(=O)[C@@H](NC(=O)[C@@H](NC(=O)[C@@H](NC(=O)[C@H](C(C)C)N(C)C(=O)[C@H](C)N(C)C(C)=O)C(C)C)[C@@H](C)O)C(C)C [compound 5, talaropeptide D] (Ac-[NMeA][NMeV]VTV[NMeV]P[NMeV][NMeV][NMeF][NMeI]L-OH)
IC50 ([2]; read-out: 5): > 30 µM | IC50 ([3]; read-out: 5): > 30 µM
